Patent EP0884321A1, “Ascorbic acid 2-phosphate zinc salt and process for manufacturing the same” (priority 1997, dated 1998)
Structures can show the parent of a compound that is named as a salt. Where two headings read alike, the source gives them in different places.

Key:
[1] = tested on: B. subtilis (168 strain); assay: Antimicrobial effect, turbidity in NUTRIENT BROTH; type: cell-based; conditions: 0.1% salt, pH 6.8, about 10^7 cells/ml, 37°C for 24 hours
Method: (§1) To NUTRIENT BROTH (produced by DIFCO), 0.1% of an L-ascorbic acid 2-phosphate salt was added thereto, and the pH was adjusted to 6.8 using hydrochloric acid or sodium hydroxide. Using 5 ml of the medium thus prepared, test bacterium were inoculated in a concentration of about 10^7 cells/ml and incubated in a test tube at 37°C for 24 hours. […] As a control, the same test was performed using a medium not containing an L-ascorbic acid 2-phosphate salt.

[2] = tested on: E. coli (K-12 strain); assay: Antimicrobial effect, turbidity in NUTRIENT BROTH; type: cell-based; conditions: 0.1% salt, pH 6.8, about 10^7 cells/ml, 37°C for 24 hours
Method: as §1

[3] = cited from earlier work
[4] = Stability in buffer solution on storage (HPLC); type: physicochemical; conditions: about 0.1%, stored at 50°C for 476 hours; for Stability (100% = concentration before storage) pH: 8: 50 mM Tris-HCl; for Stability (100% = concentration before storage) pH: 5: 50 mM acetic acid-NaOH
Method: In the Examples and Test Examples, the analysis of an L-ascorbic acid 2-phosphate salt or an ion thereof was performed using an Ap-containing solution having a known concentration (prepared from L-ascorbic acid 2-phosphate magnesium salt) as a standard by an HPLC method using a Shodex IEC DEAE-825 resin (ammonium acetate 10 mM → 1M gradient, detected spectrophotometrically at 265 nm). The elemental analysis was performed by an ICP emission method, flame photometry and an ion chromatography method. Unless otherwise indicated, the reagents used herein were commercially available reagents.
The stability of L-ascorbic acid 2-phosphate zinc salt was compared to that of L-ascorbic acid 2-phosphate magnesium salt. Each salt was dissolved in a buffer solution (50 mM acetic acid-NaOH, pH: 5, or 50 mM Tris-HCl, pH: 8) to a concentration of about 0.1% and stored at 50°C for 476 hours. The concentrations of the L-ascorbic acid 2-phosphate before and after storage were analyzed by the HPLC method.

[5] = Solubility in water
[6] = background statement on known salts

For `O=C1O[C@H]([C@@H](O)CO)C(O)=C1OP(=O)([O-])[O-].[Na+].[Na+]`, the “turbidity after incubation, B. subtilis (168 strain)” value (“turbidity … (168 strain)” for short) [1] is listed as “+”, the “turbidity after incubation, E. coli (K-12 strain)” value (“turbidity … (K-12 strain)” for short) [2] is listed as “+” and the “concentration of aqueous solution that can be formed (solubility in water)” value (from here on “concentration … (solubility in water)”) [3] is listed as “about 30%”.
For `O=C1O[C@H]([C@@H](O)CO)C(O)=C1OP(=O)([O-])[O-].[Mg+2]` [L-ascorbic acid 2-phosphate magnesium salt], the “Stability (100% = concentration before storage) pH: 8” value ([4]; pH: 8) was 95%, the “Stability (100% = concentration before storage) pH: 5” value ([4]; pH: 5) was 82% and the “turbidity … (168 strain)” value [1] was “+”. For the same compound, the “turbidity … (K-12 strain)” value [2] was “+” and the “concentration … (solubility in water)” value [3, 6] was < 30%.
For `O=C1O[C@H]([C@@H](O)CO)C(O)=C1OP(=O)([O-])[O-].[Zn+2]` [L-ascorbic acid 2-phosphate zinc salt (Example 2)], the “Stability (100% = concentration before storage) pH: 8” value ([4]; pH: 8, 28560 min) was 95% and the “Stability (100% = concentration before storage) pH: 5” value ([4]; pH: 5, 28560 min) was 92%.
For `O=C1O[C@H]([C@@H](O)CO)C(O)=C1OP(=O)([O-])[O-].[Zn+2]` [L-ascorbic acid 2-phosphate zinc salt], the remaining at 476 h ([4]; 50 mm acetic acid-naoh, pH 5, 50 mM acetic acid-NaOH, pH: 5, read-out: Stability (100% = concentration before storage) pH: 5) was 91%, the remaining at 476 h ([4]; 50 mm tris-hcl, pH 8, 50 mM Tris-HCl, pH: 8, read-out: Stability (100% = concentration before storage) pH: 8) was 93% and the “turbidity … (168 strain)” value [1] was “-”. The “turbidity … (K-12 strain)” value [2] was “-” and the solubility [5] was ≥ 500 mg/mL.
In the case of `O=C1O[C@H]([C@@H](O)CO)C(O)=C1OP(=O)(O)O` [calcium salt], the “concentration … (solubility in water)” value [3, 6] is given as “scarcely dissolves in water”.
